Source: patent US12625142B2, “Assay for measuring binding affinity for cardiolipin of biologically active compounds” (Latvian Institute of Organic Synthesis, priority 2020, dated 2026)
Where a name gives a salt, the structure may show the parent alone.

Assay: competition binding assay for cardiolipin with fluorescent probe I and CL-DOPC liposomes (25:75 mol %)
Conditions: for EC50: 20 mM HEPES buffer, 2.5 μM CL, 5 μM I, means ± S.D. from 3 independent experiments; for EC50 range (in words): pH 7.4 and 6.8; for relative binding affinity for CL within the studied set (in words): comparison of EC50 values; for effect of pH change on interaction with CL: pH 7.4 versus 6.8
Procedure: Lipid vesicles may be composed of CL and a helper phospholipid (preferentially a phosphatidylcholine) or may have a more complex composition with several phospholipids, provided that the formulation is stable in the used medium. […] [18]
Final concentration of the fluorescent probe I may range from 0.2 μM to 25 μM. Optimal incubation temperature is 37° C. because it represents physiological temperature and allows shortening of the incubation time.
A fluorimeter is required that is capable of scanning emission intensity at a desired wavelength, as well as a plate shaker-thermostat. Assay is carried out in 96-well microplates for fluorescence-based assays. […]
Also place a triplicate of CL containing lipid vesicles without a ligand (vehicle); • 3. Place the 96-well microplate in a plate shaker-thermostat for 10 min (500 RPM, 37° C.). • 4. Add appropriate amount of I stock solution (I final concentration 5 μM) to the wells, including wells containing vehicle, and mix gently with a micro pipette by sucking the solution gently up and down (approximately 5 times); • 5. Incubate for 15 min in a plate shaker-thermostat (500 RPM, 37° C.); • 6. Measure fluorescence intensity at an excitation and emission wavelength of 497 and 529 nm, respectively; • 7. […] Plot the normalized fluorescence intensity against the concentration of the ligand on a logarithmic scale; • 9. Fit the titration curve with a suitable fitting model to calculate EC50 values.

Compound	EC50 (pH = 7.4) [µM]	EC50 (pH = 6.8) [µM]	also measured
(2R,3R,4S,5S,6S)-5-amino (((2R,3S,4R,4aR,6S,7R,8aS)-7-amino-6-(((1R,2R,3S,4R,6S)-4,6-diamino-2,3-dihydroxycyclohexyl)oxy)-4-hydroxy-3-(methylamino)octahydropyrano[3,2-b]pyran-2-yl)oxy)-6-(hydroxymethyl)tetrahydro-2H-pyran-3,4-diol sulfate [Example 9]	3.34 ± 0.95	–	–
COc1cccc2c1C(=O)c1c(O)c3c(c(O)c1C2=O)C[C@@](O)(C(C)=O)C[C@@H]3O[C@H]1C[C@H](N)[C@H](O)[C@H](C)O1 [Example 6, (8S,10S)-8-acetyl-10-(((2R,4S,5S,6S)-4-amino-5-hydroxy-6-methyltetrahydro-2H-pyran-2-yl)oxy)-6,8,11-trihydroxy-1-methoxy-7,8,9,10-tetrahydrotetracene-5,12-dione hydrochloride]	4.35 ± 1.25	–	–
[Cl-].[Cl-].[Mg+2] [Example 4, Magnesium chloride]	1930 ± 20.5	–	–
CCCCCCCCCCCC[N+](C)(C)C.[Cl-] [Example 14, Dodecyltrimethylammonium chloride]	30.7 ± 2.75	74.4 ± 8.47	EC50 range (in words) (20 mM HEPES): micromolar range; relative binding affinity for CL within the studied set (in words) (20 mM HEPES): lower affinities than studied aminoglycosides or anthracyclines; effect of pH change on interaction with CL: affected by changes of pH
[H]/N=C(/N)N[C@H]1[C@H](O)[C@@H](O)[C@H](O[C@@H]2O[C@@H](C)[C@](O)(C=O)[C@H]2O[C@@H]2O[C@@H](CO)[C@H](O)[C@@H](O)[C@@H]2NC)[C@@H](N/C(N)=N\[H])[C@@H]1O [Example 10, 2-[(1R,2R,3S,4R,5R,6S)-3-(diaminomethyldeneamino)-4-[(2R,3R,4R,5S)-3-[(2S,3S,4S,5R,6S)-4,5-dihydroxy-6-(hydroxymethyl)-3-(methylamino)oxan-2-yl]oxy-4-formyl-4-hydroxy-5-methyloxolan-2-yl]oxy-2,5,6-trihydroxycyclohexyl]guanidine]	9.82 ± 1.76	–	relative binding affinity for CL within the studied set (in words) (20 mM HEPES, listed as streptomycin): lowest affinity for CL
NC[C@H]1O[C@H](O[C@H]2[C@H](O)[C@@H](O[C@H]3O[C@H](CO)[C@@H](O)[C@H](N)[C@H]3O)[C@H](N)C[C@@H]2N)[C@H](N)C[C@@H]1O [Example 12, (2S,3R,4S,5S,6R)-4-amino-2-{[(1S,2S,3R,4S,6R)-4,6-diamino-3-{[(2R,3R,5S,6R)-3-amino-6-(aminomethyl)-5-hydroxyoxan-2-yl]oxy}-2-hydroxycyclohexyl]oxy}-6-(hydroxymethyl)oxane-3,5-diol]	4.37 ± 0.32	–	–
Cl.N [Example 2, Ammonium chloride]	31853 ± 2.3	–	fold lower affinity for CL than Ca^2+ ions (pH 7.4, 20 mM HEPES, FIG. 1B): 23 fold
COc1cccc2c1C(=O)c1c(O)c3c(c(O)c1C2=O)C[C@@](O)(C(=O)CO)C[C@@H]3O[C@H]1C[C@H](N)[C@@H](O)[C@H](C)O1 [Example 5, (8S,10S)-10-(((2R,4S,5R,6S)-4-amino-5-hydroxy-6-methyltetrahydro-2H-pyran-2-yl)oxy)-6,8,11-trihydroxy-8-(2-hydroxyacetyl)-1-methoxy-7,8,9,10-tetrahydrotetracene-5,12-dione hydrochloride]	6.94 ± 0.9	5.86 ± 0.25	–
CCCCCCCCC[P+](c1ccccc1)(c1ccccc1)c1ccccc1.[Br-] [Example 13, Nonyltriphenylphosphonium bromide]	19.8 ± 0.75	36.6 ± 2.93	EC50 range (in words) (20 mM HEPES): micromolar range; relative binding affinity for CL within the studied set (in words) (20 mM HEPES): lower affinities than studied aminoglycosides or anthracyclines; affinity for CL higher than that of dodecyltrimethylammonium chloride (pH 7.4, 20 mM HEPES, FIG. 2A): ≈ 30%; effect of pH change on interaction with CL: affected by changes of pH
Cytochrome c [Example 1]	0.32 ± 0.06	0.28 ± 0.02	relative binding affinity for CL within the studied set (in words) (20 mM HEPES): the highest binding affinity for CL
[Ca+2].[Cl-].[Cl-] [Example 3, Calcium chloride]	1334 ± 10.1	1290 ± 130	lower EC50 than Mg^2+ (pH 7.4, 20 mM HEPES, FIG. 1B): ≈ 30%
